This is an account of results in US10391080B2, “Ketorolac for the treatment of cancer” (Cipla Limited, priority 2016, dated 2019).

For experiment [1], the system named is Par-4. The note with it: mouse embryonic fibroblast (MEF) cells; cited from earlier work.
Experiment [2] relates to tumor cell lines of renal cancer. Briefly: In vitro 3D combination study, clonogenic assay, both cell lines. It counts as cell-based. To be noted: Homo sapiens, A498; compound alone, colony formation in soft agar, range over RXF 1183L and RXF A-498; read-out: Relative IC50, single agent. Here is the method: The objective of this study was to assess anti-tumor efficacy of ketorolac in combination with sunitinib in a 5×5 matrix combination format against tumor cell lines of renal cancer using a clonogenic assay with image analysis as read-out.
The clonogenic assay was carried out in a 96 well plate format using ultra low attachment plates. For each test cells were prepared as described above, and assay plates were prepared as follows: each test well contained a layer of semi-solid medium with tumor cells (50 μl), and a second layer of medium supernatant with or without test compounds (100 μl). The cell layer consisted of 3×10^3 to 1×10^4 tumor cells per well, which were seeded in 50 μl/well cell culture medium (IMDM, supplemented with 20% (v/v) fetal calf serum, 0.01% (w/v) gentamicin, and 0.4% (w/v) agar). The soft agar layer was immediately covered with 90 μl of the same culture medium without agar. After 24 h the test compounds were added after serial dilution in IMDM and transfer in cell culture medium, and left on the cells for the duration of the experiment (continuous exposure, 100 μL total drug overlay). Every plate included six untreated control wells and drug-treated groups in a layout as shown above. […] At the time of maximum colony formation, counts were performed with an automatic image analysis system (Celllnsight NXT, Thermo Scientific). […]

The test system of experiment [3] is A498 cells. Briefly: In vivo animal efficacy study, subcutaneous A498 tumor fragments. Further details: species or system female athymic nude mice. The note with it: for Mean Tumor Volume / Tumor Growth Inhibition (% TGI): Sunitinib 20 mg/kg p.o. q.d. × 21 (G2). The method, then:
10 Healthy female athymic nude mice were recruited for the donor cell inoculation. Animals were subcutaneously injected at flank region with 10 million A498 cells suspended in 200 μl of media and matrigel. Animals were monitored for solid tumor growth. […] Tumors were fragmented in to ˜30 mg size. […] [table] The tumor sizes were measured weekly twice from the date of tumor appearance till the end of the experiment. Tumor size was measured by digital vernier caliper (MITUTOYO) by measuring length (L=longest axis) and width (W=shortest axis). Tumor Volume was calculated using the formula: […] Form the tumor volume data mean tumor volume and % tumor growth inhibition (% TGI) were calculated (SEM=standard error of mean).

A word on the IC50: it is the concentration that inhibits the measured activity by half.

`COc1ccc(C2=N[C@@H](c3ccc(Cl)cc3)[C@@H](c3ccc(Cl)cc3)N2C(=O)N2CCNC(=O)C2)c(OC(C)C)c1` [Nutlin-3a]: the PAR-4 secretion result in experiment [1] is “stimulated PAR-4 secretion at micromolar levels”.

Take `CCN(CC)CCNC(=O)c1c(C)[nH]c(/C=C2\C(=O)Nc3ccc(F)cc32)c1C` [Sunitinib]: the IC50 in experiment [2] was in the range of 1.5 to 4.59 µM. Further, the “Mean Tumor Volume” value was found to be 145.40 mm^3 in experiment [3] (day 1); 174.90 mm^3 in experiment [3] (day 6); 261.95 mm^3 in experiment [3] (day 9); 340.62 mm^3 in experiment [3] (day 13); 448.05 mm^3 in experiment [3] (day 16); 630.25 mm^3 in experiment [3] (day 20). Also, the “Tumor Growth Inhibition (% TGI)” value in experiment [3] (day 1) is 1.47%; in experiment [3] (day 6) it was 47.31%; in experiment [3] (day 9) it was 43.52%; in experiment [3] (day 13) it was 44.80%; in experiment [3] (day 16) it was 53.39%; in experiment [3] (day 20), 50.78%. The molecule further gave a Maximum tumor inhibition in experiment [3] (Sunitinib alone at a dose of 20 mg/kg) of 51%.
